# Data: US9943613B2 (priority 2012, dated 2018)
# Assays:
# human knee = settings: 10 minutes after intraarticular injection of 25 ml of 5 mM solution in PBS, 3 Tesla, FIG. 9
# Protocol: Coronal T1-weighted MR images of a human knee were taken in a human cadaver. Coronal T1-weighted MR contrast images were also taken ex vivo in a human cadaver 10 minutes after intraarticular injection of 25 ml of a 5 mM solution of DAB-4 citrate diluted in PBS. […] All images were performed on a Siemens Skyra 3 Tesla magnet using a 15 channel transmit/receive QED knee coil. (14 cm FOV (field of view); 3 mm thick slice; 384×384 matrix; TR 800 ms; TE 8.6 ms; Turbo factor of 2; receiver bandwidth 350 Hz/pixel.)
# [1] = tested on: glycosaminoglycans (GAG) in the cartilage; assay: T1 value map versus Safranin-O/fast green histology of cartilage-bone plug equilibrated in contrast agent (GAG targeting); settings: human tibial plateau cartilage-bone plug equilibrated in contrast agent
# Description: Cartilage-bone plug excised from a human tibial plateau that was retrieved from total knee replacement surgery was equilibrated in DAB-4 linked nitroxide citrate. T1 value map (as acquired for FIG. 1) is compared to histology in FIG. 2: • a) T1 value map: orange color is lower T1 value indicating more contrast agent and more glycosaminoglycans (GAG) in the cartilage. • b) Histology of the same specimen stained with Safranin-O/fast green.
# [2] = tested on: RES-LTC chondrosarcoma cell line; assay: Modified MTT assay for metabolic activity; assay type: cell-based; settings: 48 hour timepoint; for MTT metabolic activity: FIG. 3
# Protocol: Assays: Modified MTT assay for metabolic activity (absorbance).
# (§1) Assay data analysis: Expressed as % of the positive controls for MTT and picogreen. MTT absorbance measures then normalized to the μgDNA/ml generated by the picogreen assay.
# (§2) Cell cultures: RES-LTC chondrosarcoma cell line. Expresses hyaline-like chondrocyte phenotype and reliably produces large, homogeneous cell populations
# (§3) Cell cultures in 96 well plates. Each compound, at a fixed concentration, was added in triplicate for each assay. MTT and picogreen assays in separate plates (assays interfere with each other). All plates treated together. Assays run at 48 hour timepoint. Microscopy performed to confirm findings.
# rabbit stifle joints = assay: Single intra-articular injection toxicity model in rabbit stifles; assay type: in vivo, New Zealand White rabbits; settings: for Synovial inflammation scoring: versus PBS-injected stifles, FIG. 7
# Description: Rabbits were euthanized two weeks post-injection. Both left and right stifles were harvested and immediately fixed in 10% neutral buffered formalin, then set for histological processing. Five-micron thick slides from each knee were stained with Hematoxylin & Eosin and Safranin-O.
# [3] = tested on: RES-LTC chondrosarcoma cell line; assay: Quantitative picogreen assay for cell proliferation; assay type: cell-based; settings: 10 mM, 48 hour timepoint, FIG. 4
# Protocol: Quantitative picogreen for cell proliferation (μgDNA/ml).
# as §1, §2, §3
# [4] = two weeks post-injection, histology
compound,measurement,setting,value
Citric Acid Salt of DAB-4 Linked Nitroxide [DAB-4 linked nitroxide citrate],T1-weighted MR contrast of joint fluid and cartilage surfaces,human knee,the joint fluid (asterisk) is now bright and outlines the cartilage surfaces
same,detection of cartilage defect on T1-weighted MR image,human knee,A partial thickness cartilage defect (arrow) is easily identified
same,agreement of T1 value map with histology stain for GAG concentration,[1],high GAG concentration in the same areas indicated by DAB-4 linked nitroxide on the T1 value map and the stain on the histology map
CNC[C@H](O)[C@@H](O)[C@H](O)[C@H](O)CO.CNC[C@H](O)[C@@H](O)[C@H](O)[C@H](O)CO.O=C([O-])CN(CCN(CC(=O)[O-])CC(=O)O)CCN(CC(=O)[O-])CC(=O)O.[Gd+3] [Magnevist],MTT data normalized to μgDNA/ml (health of the cells),"[2]; 10 mM, FIG. 5",abnormally high
same,clinical signs of inflammation or lameness,"rabbit stifle joints; single intra-articular injection, two weeks observation",No animals presented clinical signs of inflammation or lameness
same,Modified Mankin scoring (structural damage / joint degeneration),"rabbit stifle joints; two weeks post-injection, histology, FIG. 6",did not uncover any signs of structural damage and/or degenerative response
same,Synovial inflammation scoring,rabbit stifle joints; [4],no difference between Magnevist or DAB-4 linked nitroxide and the PBS-injected stifles
same,Picogreen cell proliferation,[3],low cell proliferation
DAB-dendrimer-(NH-3-CO-PROXYL)8 [DAB-8 linked nitroxide],MTT metabolic activity,[2]; concentrations above 1 mM,"less metabolic activity than positive controls (untreated), or DAB-4 linked nitroxide and Magnevist"
DAB-dendrimer-(NH-3-CO-PROXYL)4 [DAB-4 linked nitroxide],MTT metabolic activity,[2]; 1-10 mM,less metabolic activity than positive controls but greater than for DAB-8 linked nitroxide
same,agreement of T1 value map with histology stain for GAG concentration,[1],high GAG concentration in the same areas as indicated by DAB-4 linked nitroxide on the T1 value map and the stain on the histology map
same,Synovial inflammation scoring,rabbit stifle joints; [4],no difference between Magnevist or DAB-4 linked nitroxide and the PBS-injected stifles
